Measured values published in US20240325399A1, “PHARMACEUTICAL COMPOSITION FOR PREVENTING OR TREATING CHOLANGITIS OR LIVER DISEASE CAUSED BY CHOLANGITIS COMPRISING ADENOSINE DERIVATIVE” (FUTURE MEDICINE CO., LTD., priority 2021, published 2024).

How the values were obtained:
[1] = test system: TPA-induced inflammation of the mouse ear; assay: Anti-inflammatory activity, TPA-induced inflammation of the mouse ear; assay type: in vivo, ICR mice; details: for Anti-inflammatory activity (TPA-induced mouse ear inflammation): 0.5% in acetone, 20 μl, topical to ear
Experimental: The adenosine derivatives of the present invention were examined for anti-inflammatory activity in the following animal test. Seven-week-old male ICR mice were treated with TPA (12-O-tetradecanoylphorbol-13-acetate, 20 l) in the right ear. […] Hydrocortisone was used at the same concentration as a control.
6 hrs after treatment with TPA, the mice were secondarily treated with the adenosine derivatives of the present invention. 24 hrs after TPA treatment, test animals were euthanized using a cervical dislocation method. Samples were obtained from the right ear using a 6 mm diameter punch. The activity was observed by measuring the ear sample using a microbalance. Percentages of inhibition were calculated using the following Equation 1. The compositions and amounts used in these experiments are summarized in Tables 14 to 17 and the anti-inflammatory activities thereof are shown in FIGS. 10 to 13.

ICR mice = assay: Toxicity after intraperitoneal injection, 24 hrs observation, mice; assay type: in vivo; details: intraperitoneal 20, 10 and 1 mg/kg
Experimental: (§1) The Adenosine Derivative of the present invention were assayed for cytotoxicity in animals.

Sprague Dawley rats = assay: Toxicity after intraperitoneal injection, 24 hrs observation, rats; assay type: in vivo; details: SD rats, intraperitoneal 20, 10 and 1 mg/kg
Experimental: as §1

[2] = molecular target: T1, human A1 adenosine receptor (hA1) (Homo sapiens, UniProt P30542); assay: Binding affinity for A1 adenosine receptor ([3H]CCPA, CHO cells); details: percentage inhibition of specific binding in the presence of 10 μM of the unlabeled ligand NECA
T1 construct: expressed in transfected cells; host or cells: CHO cells (ATCC No. CCL-61)
T1 sequence (P30542 1-326): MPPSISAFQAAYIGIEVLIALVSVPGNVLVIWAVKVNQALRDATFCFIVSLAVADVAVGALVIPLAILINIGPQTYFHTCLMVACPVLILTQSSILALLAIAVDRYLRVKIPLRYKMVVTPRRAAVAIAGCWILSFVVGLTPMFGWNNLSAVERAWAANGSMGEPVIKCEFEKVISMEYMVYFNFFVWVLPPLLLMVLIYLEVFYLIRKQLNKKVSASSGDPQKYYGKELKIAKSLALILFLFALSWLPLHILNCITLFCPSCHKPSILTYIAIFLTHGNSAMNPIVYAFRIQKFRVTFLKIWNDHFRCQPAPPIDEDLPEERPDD
Experimental: CHO cells (ATCC No. CCL-61), in which A1 and A3 adenosine receptors were expressed, were cultured in F-12 media (Gibco, U.S.A.) supplemented with 10% fetal bovine serum (FBS) and penicillin/streptomycin (100 units/ml and 100 g/ml), at 37° C. in a 5% CO2 atmosphere. […] Incubation for 1 hr in a 37° C. incubator was followed by rapid filtration in a vacuum using a cell collector (TOMTEC, U.S.A.). Subsequently, the test tubes were washed three times with 3 ml of the buffer before radioactivity was measured using a γ-counter. […] Ki for binding affinity was determined by subtracting the non-specific binding value from the total binding value. On the basis of the specific binding values, the samples were analyzed for binding affinity to various adenosine receptors.

[3] = molecular target: T2, human A2A adenosine receptor (hA2A) (Homo sapiens, UniProt P29274); assay: Binding affinity for A2A adenosine receptor ([3H]CGS-21680, HEK 293 cell); details: percentage inhibition of specific binding of 10 μM labeled ligand in the presence of 10 μM of the unlabeled ligand NECA
T2 construct: expressed in transfected cells; host or cells: HEK 293 cell
T2 sequence (P29274 whole entry): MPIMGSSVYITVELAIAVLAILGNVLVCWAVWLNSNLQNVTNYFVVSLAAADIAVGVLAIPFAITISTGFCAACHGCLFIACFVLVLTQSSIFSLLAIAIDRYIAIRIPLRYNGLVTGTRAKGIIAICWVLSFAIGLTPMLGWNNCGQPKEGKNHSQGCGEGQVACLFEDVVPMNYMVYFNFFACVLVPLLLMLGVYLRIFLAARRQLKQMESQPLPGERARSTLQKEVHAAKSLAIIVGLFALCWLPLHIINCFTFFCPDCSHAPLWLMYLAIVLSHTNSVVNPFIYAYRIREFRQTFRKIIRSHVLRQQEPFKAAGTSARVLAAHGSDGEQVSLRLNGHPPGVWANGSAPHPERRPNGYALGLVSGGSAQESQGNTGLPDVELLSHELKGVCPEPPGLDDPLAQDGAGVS
Experimental: Each of the compounds synthesized in the examples was measured for IC50 at least 6 different concentrations, and the measurements were analyzed using SigmaPlot software to determine Ki values.

[4] = patients with liver cirrhosis; cited from earlier work

O[C@@H]1[C@H](O)CS[C@H]1n1cnc2c(NCc3cccc(F)c3)nc(Cl)nc21 [Example 1, (2R,3R,4S)-2-(2-chloro-6-(3-fluorobenzylamino)-9H-purin-9-yl)tetrahydrothiophen-3,4-diol]
Anti-inflammatory activity (TPA-induced mouse ear inflammation) [1]: increased

O[C@@H]1[C@H](O)CS[C@H]1n1cnc2c(NCc3cccc(Cl)c3)nc(Cl)nc21 [Example 2, (2R,3R,4S)-2-(2-chloro-6-(3-chlorobenzylamino)-9H-purin-9-yl)tetrahydrothiophen-3,4-diol]
Weight gain or feed intake versus control group (ICR mice): No difference in weight gain or feed intake
Weight gain or feed intake versus control group (Sprague Dawley rats): No difference in weight gain or feed intake
% inhibition of specific binding, hA1 [2]: 37.9%
% inhibition of specific binding, hA2A [3]: 17.7%

COc1ccc(Cl)cc1CNc1nc(Cl)nc2c1ncn2[C@@H]1SC[C@@H](O)[C@H]1O [Example 6, (2R,3R,4S)-2-(2-chloro-6-(5-chloro-2-methoxybenzylamino)-9H-purin-9-yl)tetrahydrothiophen-3,4-diol]
Percentage of inflammation inhibition ([1]; 0.5% in a mixture of distilled water and acetone (1:4)): 34%
Anti-inflammatory activity (TPA-induced mouse ear inflammation) [1]: increased

O[C@@H]1[C@H](O)CO[C@H]1n1cnc2c(NCc3cccc(I)c3)nc(Cl)nc21 [Example 16, (2R,3R,4R)-2-(2-chloro-6-(3-iodobenzylamino)-9H-purin-9-yl)tetrahydrofuran-3,4-diol]
Percentage of inflammation inhibition ([1]; 0.5% in a mixture of DMSO and acetone (1:9)): 79%

CC[C@H]1[C@@H](O)[C@@H]2[C@H](CC[C@]3(C)[C@@H]([C@H](C)CCC(=O)O)CC[C@@H]23)[C@@]2(C)CC[C@@H](O)C[C@@H]12 [OCA, obeticholic acid]
Liver safety in patients [4]: may induce acute liver failure in patients with liver cirrhosis
